Reference: ChEMBL document CHEMBL1153150, “Synthesis and structure-activity relationship of novel lactam-fused chroman derivatives having dual affinity at the 5-HT(1A) receptor and the serotonin transporter” (Bioorg Med Chem Lett, 2010)
pEC50, pIC50, pKi: −log10 of the molar value.

Tests used:
[1] = target: T1, 5-hydroxytryptamine receptor 1A (Homo sapiens) (UniProt P08908); assay: Agonist activity at human 5HT1A receptor expressed in CHO cells by [35S]GTPgammaS binding assay; type: functional, cell-based
T1 sequence (whole entry): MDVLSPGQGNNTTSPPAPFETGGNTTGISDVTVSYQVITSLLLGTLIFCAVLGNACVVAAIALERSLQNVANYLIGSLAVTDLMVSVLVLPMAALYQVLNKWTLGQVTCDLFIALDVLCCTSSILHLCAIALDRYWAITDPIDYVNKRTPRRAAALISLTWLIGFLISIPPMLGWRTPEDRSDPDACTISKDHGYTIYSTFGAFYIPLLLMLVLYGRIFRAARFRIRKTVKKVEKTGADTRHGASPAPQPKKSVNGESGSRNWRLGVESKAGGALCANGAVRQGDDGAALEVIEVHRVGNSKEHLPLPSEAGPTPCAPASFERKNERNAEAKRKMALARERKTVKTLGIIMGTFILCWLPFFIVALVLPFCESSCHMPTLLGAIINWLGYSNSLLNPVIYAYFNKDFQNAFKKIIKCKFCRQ

[2] = target: Sodium-dependent serotonin transporter (Homo sapiens, UniProt P31645); assay: Displacement of labeled paroxetine from 5-HT transporter
Sequence of Sodium-dependent serotonin transporter (P31645 whole entry): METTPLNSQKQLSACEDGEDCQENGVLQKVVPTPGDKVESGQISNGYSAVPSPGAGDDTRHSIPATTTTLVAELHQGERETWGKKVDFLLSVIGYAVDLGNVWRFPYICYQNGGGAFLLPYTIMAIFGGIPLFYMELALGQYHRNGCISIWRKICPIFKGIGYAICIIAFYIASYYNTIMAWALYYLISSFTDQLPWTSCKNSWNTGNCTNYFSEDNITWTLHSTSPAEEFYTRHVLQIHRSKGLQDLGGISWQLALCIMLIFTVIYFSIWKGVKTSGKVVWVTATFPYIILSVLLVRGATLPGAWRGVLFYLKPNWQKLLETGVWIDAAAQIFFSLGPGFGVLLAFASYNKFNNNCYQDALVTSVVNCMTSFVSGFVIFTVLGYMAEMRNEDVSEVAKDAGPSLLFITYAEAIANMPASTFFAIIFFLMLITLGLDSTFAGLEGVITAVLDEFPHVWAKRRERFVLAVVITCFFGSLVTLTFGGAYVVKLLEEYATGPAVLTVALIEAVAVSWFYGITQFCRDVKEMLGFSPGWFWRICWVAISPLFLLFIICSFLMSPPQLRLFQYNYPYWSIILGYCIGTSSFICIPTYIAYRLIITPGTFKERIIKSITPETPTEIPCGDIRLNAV

[3] = target: T2, 5-hydroxytryptamine receptor 1A (Homo sapiens, UniProt P08908); assay: Displacement of [3H][…] from human 5HT1A receptor expressed in CHO cells; type: cell-based
T2 sequence (P08908 whole entry): T1 sequence (whole entry)

[4] = target: T2, 5-hydroxytryptamine receptor 1A; assay: Agonist activity at human 5HT1A receptor expressed in CHO cells assessed as inhibition of forskolin-induced adenylate cyclase activity; type: functional, cell-based

SMILES | Emax [1] [%] | pKi [2] | pKi [3] | pEC50 [4] | pIC50 [4]
N#Cc1ccc2[nH]cc(CCCNC3COc4ccc5c(c4C3)C(=O)NC5)c2c1 (racemic) | 91 | 7.89 | 7.44 | 7.66 | –
O=C1NCc2ccc3c(c21)CC(N(CCCc1c[nH]c2ccc(F)cc12)CC1CC1)CO3 (racemic) [listing 1 of 2 here] | – | 7.82 | 8.22 | – | 6.65
N#Cc1ccc2[nH]cc(CCCCN(CC3CC3)C3COc4ccc5c(c4C3)C(=O)NC5)c2c1 (single isomer, unassigned; (-)) [listing 2 of 2 here] | 0 | – | – | – | –
N#Cc1ccc2[nH]cc(CCCCN(CC3CC3)C3COc4ccc5c(c4C3)C(=O)NC5)c2c1 (single isomer, unassigned; (+)) [listing 1 of 2 here] | – | 7.92 | 7.51 | 7.72 | –
O=C1NCc2ccc3c(c21)CC(N(CCCc1c[nH]c2ccc(F)cc12)CC1CC1)CO3 (stereo in doubt; (+)-46) [listing 2 of 2 here] | – | 8.30 | 8.52 | 7.62 | –
CN(CCCc1c[nH]c2ccc(F)cc12)C1COc2ccc3c(c2C1)C(=O)NCC3 (racemic) | 99 | 7.77 | 7.64 | 7.59 | –
O=C1NCCc2ccc3c(c21)CC(N(CCCc1c[nH]c2ccc(F)cc12)CC1CC1)CO3 (racemic) | 91 | 7.59 | 7.72 | 7.44 | –
CCN(CCCc1c[nH]c2ccc(F)cc12)C1COc2ccc3c(c2C1)C(=O)NC3 (racemic) | 78 | 8.10 | 8.70 | 7.55 | –
O=C1NCc2ccc3c(c21)CC(N(CCCc1c[nH]c2ccc(F)cc12)C(=O)c1ccccc1)CO3 (racemic) | 96 | 7.51 | 7.07 | 6.36 | –
CC(C)N(CCCc1c[nH]c2ccc(F)cc12)C1COc2ccc3c(c2C1)C(=O)NCC3 (racemic) | 94 | 8.10 | 6.89 | 6.60 | –
N#Cc1ccc2[nH]cc(CCCCN(CC3CC3)C3COc4ccc5c(c4C3)C(=O)NC5)c2c1 (racemic) [listing 2 of 2 here] | 0 | – | – | – | –
CCN(CCCc1c[nH]c2ccc(F)cc12)C1COc2ccc3c(c2C1)C(=O)NCC3 (racemic) | 97 | 7.52 | 8.22 | 8.05 | –
O=C1NCc2ccc3c(c21)CC(N(CCCc1c[nH]c2ccc(F)cc12)CC1CCCCC1)CO3 (racemic) | – | 5.91 | – | – | –
CC(C)CN(CCCc1c[nH]c2ccc(F)cc12)C1COc2ccc3c(c2C1)C(=O)NC3 (racemic) | – | 6.21 | – | – | –
N#Cc1ccc2[nH]cc(CCCCN(CC3CC3)C3COc4ccc5c(c4C3)C(=O)NC5)c2c1 (single isomer, unassigned; (+)) [listing 2 of 2 here] | 100 | – | – | – | –
O=C1NCCc2cc(F)c3c(c21)CC(N(CCCc1c[nH]c2ccc(F)cc12)CC1CC1)CO3 (racemic) | 62 | 6.95 | 7.30 | 7.00 | –

Further lines, results first:

Emax [1] [%] | pKi [2] | pKi [3] | pEC50 [4] | pIC50 [4] | SMILES
– | 7.77 | 8.00 | – | 6.69 | N#Cc1ccc2[nH]cc(CCCCN(CC3CC3)C3COc4ccc5c(c4C3)C(=O)NC5)c2c1 (single isomer, unassigned; (-)) [listing 1 of 2 here]
77 | 7.55 | 7.02 | 7.27 | – | O=C1NCCc2ccc3c(c21)CC(N(CCCc1c[nH]c2ccc(F)cc12)C1CCC1)CO3 (racemic)
100 | 7.21 | 7.89 | 7.47 | – | CCCN(CCCc1c[nH]c2ccc(F)cc12)C1COc2ccc3c(c2C1)C(=O)NCC3 (racemic)
0 | – | – | – | – | O=C1NCc2ccc3c(c21)CC(N(CCCc1c[nH]c2ccc(F)cc12)CC1CC1)CO3 (single isomer, unassigned; (-)) [listing 1 of 2 here]
– | 8.22 | 8.10 | – | 6.49 | O=C1NCc2ccc3c(c21)CC(N(CCCc1c[nH]c2ccc(F)cc12)CC1CC1)CO3 (single isomer, unassigned; (-)) [listing 2 of 2 here]
84 | – | – | – | – | O=C1NCc2ccc3c(c21)CC(N(CCCc1c[nH]c2ccc(F)cc12)CC1CC1)CO3 (stereo in doubt; (+)-46) [listing 1 of 2 here]
80 | 8.05 | 7.66 | 7.12 | – | CN(CCCc1c[nH]c2ccc(F)cc12)C1COc2ccc3c(c2C1)C(=O)NC3 (racemic)
92 | 7.82 | 8.40 | 8.00 | – | CCN(CCCc1c[nH]c2ccc(F)cc12)C1COc2c(F)cc3c(c2C1)C(=O)NCC3 (racemic)
87 | 6.86 | 7.72 | 7.31 | – | O=C1NCc2ccc3c(c21)CC(N(CCCCc1c[nH]c2ccc(F)cc12)CC1CC1)CO3 (racemic)
98 | 7.57 | 8.22 | 8.40 | – | O=C1NCCc2cc(F)c3c(c21)CC(NCCCc1c[nH]c2ccc(F)cc12)CO3 (racemic)
96 | 7.70 | 7.66 | 6.55 | – | O=C1NCc2ccc3c(c21)CC(NCCCCc1c[nH]c2ccc(F)cc12)CO3 (racemic)
– | 6.17 | 5.91 | – | – | O=C1NCCc2ccc3c(c21)CC(N(CCCc1c[nH]c2ccc(F)cc12)C(=O)c1ccccc1)CO3 (racemic)
– | 7.60 | 8.40 | – | 7.20 | N#Cc1ccc2[nH]cc(CCCCN(CC3CC3)C3COc4ccc5c(c4C3)C(=O)NC5)c2c1 (racemic) [listing 1 of 2 here]
0 | – | – | – | – | O=C1NCc2ccc3c(c21)CC(N(CCCc1c[nH]c2ccc(F)cc12)CC1CC1)CO3 (racemic) [listing 2 of 2 here]
– | 6.47 | 6.02 | – | – | O=C1NCCc2ccc3c(c21)CC(N(CCCc1c[nH]c2ccc(F)cc12)CCC(F)(F)F)CO3 (racemic)
– | 7.20 | 7.00 | 6.46 | – | O=C1NCc2ccc3c(c21)CC(N(CCCc1c[nH]c2ccc(F)cc12)C1CCC1)CO3 (racemic)
100 | 8.10 | 7.62 | 7.21 | – | O=C1NCc2ccc3c(c21)CC(NCCCc1c[nH]c2ccc(F)cc12)CO3 (racemic)
– | 6.74 | 6.03 | – | – | CC(C)CN(CCCc1c[nH]c2ccc(F)cc12)C1COc2ccc3c(c2C1)C(=O)NCC3 (racemic)
87 | 8.00 | 7.36 | 7.60 | – | O=C1NCCc2ccc3c(c21)CC(NCCCc1c[nH]c2ccc(F)cc12)CO3 (racemic)
